According to patent US20150328198A1, “METHODS OF TREATING METHICILLIN-RESISTANT STAPHYLOCOCCUS AUREUS (MRSA) USING PPAR-GAMMA AGONISTS” (priority 2014, published 2015):

System: MRSA
Experiment: murine MRSA skin and soft tissue infection (SSTI) model
Type: in vivo, mice
Source text: Peroxisome Proliferator Activator Receptor-γ (PPAR-γ) is a nuclear receptor that inhibits inflammation and redirects macrophages towards an M2 phenotype by driving Arg-1, Scd-1, SSAT and fatty acid synthesis gene expression. PPAR-γ is therefore involved in the development of adipocytes as well as M2-MΦs.

Row | SMILES | reduction of average time to healing (mouse, in vivo) [days] | beneficial effects of treatment in PPAR-γ-/- mice (mice lacking myeloid PPAR-γ) | number of viable bacteria in wounds/abscesses (day 12) | resolution of MRSA SSTIs (mouse, in vivo)
1 | CCc1ccc(CCOc2ccc(CC3SC(=O)NC3=O)cc2)nc1 (centres unmarked) [Pioglitazone] | ~5 |  |  | 
2 | CN(CCOc1ccc(CC2SC(=O)NC2=O)cc1)c1ccccn1 (centres unmarked) [Rosiglitazone] | ~5 | no effect |  | 
3 | O=C(Nc1ccccc1)c1cc([N+](=O)[O-])ccc1Cl [GW9662] |  |  | greatly increased | non-resolving
